How the values were obtained:
[1] = biological target: T1, bovine spleen cathepsin B (Bos taurus, UniProt P07688); experiment: Cathepsin B mediated cleavage of single amino acid linkers (RP-HPLC, A340); type: biochemical; details: cysteine modified compound, activated cathepsin B, pH 5.0, 37° C.
T1 construct: bovine spleen cathepsin B (Sigma product code C-6286) was prepared by dissolving lyophilized solid; purchased Sigma C-6286; host or cells: bovine spleen (tissue-derived)
Protocol: (§1) A panel of single amino acid compounds, each differing with respect to amino acid composition but of otherwise similar structure, was assayed for cathepsin B activity. The following compounds were tested: compounds A,B,C,D,E and F. The appearance of cathepsin B-mediated products was monitored by application to RP-HPLC with quantitation of drug products by their absorbance at 340 nm.
(§2) Cathepsin B Enzyme Assay: A stock solution of bovine spleen cathepsin B (Sigma product code C-6286) was prepared by dissolving lyophilized solid (6 mg at 56% protein) in 25 mM sodium acetate/1 mM EDTA pH 5.0 buffer (10 mL). Enzyme activation was accomplished by mixing the stock solution (50 uL) with activation buffer (100 ul) comprised of 30 mM DTT/15 mM EDTA, followed by incubation at room temperature for 15 minutes. The activated cathepsin B was diluted 1:1 with a solution of 25 mM sodium acetate/1 mM EDTA, pH 5.0 prior to use. To assay for drug release, cysteine modified compound (4 uL of 2.5 mM solution in DMSO) was added to 25 mM sodium acetate/1 mM EDTA pH 5.0 buffer (86 uL) and activated cathepsin B (10 uL at 3.6 U/mL). Samples were incubated at 37° C. for appropriate time points and stopped with methanol (100 uL).
(§3) Compounds samples (40 uL) were applied to a Waters 2795 HPLC system fitted with a reverse phase column (Waters Nova-pak C18, 3.9×150 mm column, product code WAT086344). Sample chromatography was accomplished using a dual mobile phase system comprised of water/0.1% TFA (A buffer) and acetonitrile/0.1% TFA (B buffer) with a gradient elution of 10-100% B buffer over 20 min at 1.0 mL/min. compounds were detected by its absorbance at 340 nm (A340).

cathepsin B = biological target: T2, cathepsin B (Bos taurus, UniProt P07688); experiment: as above; type: biochemical, bovine; details: bovine, activated bovine spleen cathepsin B (isolated enzyme), cysteine modified compound, pH 5.0, 37° C., read-out: Approx. substrate half-life (converted)
T2 construct: bovine spleen cathepsin B (Sigma product code C-6286) was prepared by dissolving lyophilized solid; purchased Sigma C-6286; host or cells: bovine spleen (tissue-derived)
Protocol: as §1, §2, §3

786-O = experiment: In vivo study: 786-O tumor xenograft, toxin-conjugated anti-CD70 HuMAb 2H5; details: 0.03 μmol toxin dosage, IP, dosed on Day 0; CD70.1 antibody conjugates; 786-O tumors in male CB17.SCID mice
Protocol: 786-O (ATCC Accession No. CRL-1932) cells were expanded in vitro using standard laboratory procedures. Male CB17.SCID mice (Taconic, Hudson, N.Y.) between 6-8 weeks of age were implanted subcutaneously in the right flank with 2.5 million 786-O in 0.2 ml of PBS/Matrigel (1:1) per mouse. Mice were weighed and measured for tumors three dimensionally using an electronic caliper twice weekly after implantation. Tumor volumes were calculated as height×width×length. Mice with tumors averaging 200 mm^3 were randomized into treatment groups. The mice were dosed intraperitoneally with PBS vehicle, toxin-conjugated isotype control antibody or toxin-conjugated anti-CD70 HuMAb 2H5 on Day 0. Each group contained 8 mice.
FIGS. 1, 2, 5, and 6 show the mean tumor volume versus days past dosing and FIGS. 3, 4, 7, and 8 show the median tumor volume versus days past dosing (0.03 μmol—FIGS. 1, 3, 5, and 7; 0.005 μmol—FIGS. 2, 4, 6, and 8).

| SMILES | Cathepsin B cleavage [1] | Cathepsin B cleavage ([1]; listed as compound A) | half-life at 100 µM (cathepsin B) | Efficacy (tumor volume versus days past dosing), descending order (786-O) | Cathepsin B cleavage ([1]; listed as compound D) |
| --- | --- | --- | --- | --- | --- |
| CN1CCN(C(=O)Oc2cc3c(c4ccccc24)[C@H](CCl)CN3C(=O)c2cc3cc(NC(=O)c4ccc(NC(=O)[C@H](CCCNC(N)=O)NC(=O)CCCCCN5C(=O)C=CC5=O)cc4)ccc3[nH]2)CC1 [Compound A] | Yes | cleaved by cathepsin B | ~24 h | Compound E>Compound F>Compound A>Compound C, Compound D>Compound B>Compound G | – |
| CN1CCN(C(=O)Oc2cc3c(c4ccccc24)[C@H](CCl)CN3C(=O)c2cc3cc(NC(=O)c4ccc(NC(=O)[C@H](CCCNC(N)=O)NCCNC(=O)CCCCCN5C(=O)C=CC5=O)cc4)ccc3[nH]2)CC1 [Compound B] | No | – | – | Compound E>Compound F>Compound A>Compound C, Compound D>Compound B>Compound G | – |
| CN1CCN(C(=O)Oc2cc3c(c4ccccc24)[C@H](CCl)CN3C(=O)c2cc3c4c(ccc3[nH]2)N(C(=O)c2ccc(NC(=O)[C@H](CCCNC(N)=O)NC(=O)CCCCCN3C(=O)C=CC3=O)cc2)CC4)CC1 [Compound C] | No | – | – | Compound E>Compound F>Compound A>Compound C, Compound D>Compound B>Compound G | – |
| CN1CCN(C(=O)Oc2cc3c(c4ccccc24)[C@H](CCl)CN3C(=O)c2cc3cc(NC(=O)c4ccc(NC(=O)[C@H](CO)NC(=O)CCCN5C(=O)C=CC5=O)cc4)ccc3[nH]2)CC1 [Compound D] | No | – | – | Compound E>Compound F>Compound A>Compound C, Compound D>Compound B>Compound G | cleaved by cathepsin B |
| CN1CCN(C(=O)Oc2cc3c(c4ccccc24)[C@H](CCl)CN3C(=O)c2cc3cc(NC(=O)c4ccc(NC(=O)[C@H](CCCCN)NC(=O)CCCCCN5C(=O)C=CC5=O)cc4)ccc3[nH]2)CC1 [Compound E] | Yes | – | ~4 h | Compound E>Compound F>Compound A>Compound C, Compound D>Compound B>Compound G | – |
| CN1CCN(C(=O)Oc2cc3c(c4ccccc24)[C@H](CCl)CN3C(=O)c2cc3cc(NC(=O)c4ccc(NC(=O)[C@H](CCC(=O)O)NC(=O)CCCCCN5C(=O)C=CC5=O)cc4)ccc3[nH]2)CC1 [Compound F] | No | – | – | Compound E>Compound F>Compound A>Compound C, Compound D>Compound B>Compound G | – |
| CN1CCN(C(=O)Oc2cc3c(c4ccccc24)[C@H](CCl)CN3C(=O)c2cc3cc(NC(=O)c4ccc(NCC(=O)NCCNC(=O)CCCN5C(=O)C=CC5=O)cc4)ccc3[nH]2)CC1 [Compound G] | – | – | – | Compound E>Compound F>Compound A>Compound C, Compound D>Compound B>Compound G | – |
